Results published in patent US11690850B2, “Inhibitors of receptor interacting protein kinase I for the treatment of disease” (Board of Regents, The University of Texas System, priority 2019, dated 2023).

Legend:
[1] = biological target: RIPK1 (Homo sapiens (Human), UniProt Q13546); assay: ADP-Glo Kinase Assay; assay type: biochemical; conditions: 5 nM RIPK1 protein, 50 μM ATP, 6 hr reaction, average value across multiple runs
In short: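 ADP formed from ATP is measured by ADP-Glo luminescence with 5 nM RIPK1, preincubated 10 min with compound, then 50 μM ATP for 6 h. Buffer is 50 mM HEPES pH 7.5, 50 mM NaCl, 30 mM MgCl2, 1 mM DTT, 0.05% BSA, 0.02% CHAPS. IC50 comes from a four-parameter fit, averaged over runs.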

[2] = tested on: human monocytic cell line U937; assay: Human U937 Cellular Necroptosis Assay; assay type: cell-based; conditions: U-937; U937 cells stimulated with 25 ng/mL human TNFalpha and 25 μM z-VAD-FMK, 22 hr, viability by Cell Titer-Glo 2.0; average value across multiple runs; read-out: hU937 IC50
Protocol: Human U937 Cellular Necroptosis Assay
The human monocytic cell line U937 (CRL-1593.2) was purchased from ATCC. The cells were routinely maintained in RPMI-1640 Medium (Gibco, Catalog #11875-093) supplemented with 10% heat inactivated fetal bovine serum (Gibco, Catalog #16140-071), 100 units/mL penicillin and 100 μg/mL streptomycin (Gibco, Catalog #15140-122), in a humidified incubator (37° C., 5% CO2). For the assay, cells were resuspended in RPMI-1640 phenol red free Media (Gibco, Catalog #11835-030) supplemented with 10% fetal bovine serum (Sigma, Catalog #F2442), 100 units/mL penicillin and 100 ug/mL streptomycin. Cells were stimulated with 25 ng/mL human TNFalpha (Cell Sciences, Catalog #CSI15659B) and 25 μM z-VAD-FMK (R&D Systems, Catalog #FMK001) followed by seeding 5000 cells per well in a volume of 40 μL to a white, CulturPlate-384 (Perkin Elmer, Catalog #6007680). Stock solutions of the test compounds were prepared in 100% DMSO (Sigma, Catalog #D2650) and serially diluted 1:3 using 100% DMSO. Compounds were additionally diluted 1:40 in assay medium, and 10 μL/well was transferred to the plate. Following the compound addition the plate was incubated at 37° C. and 5% CO2 for 22 hr. After 22 hr, viability was assessed with the addition of 20 μL of Cell Titer-Glo 2.0 (Promega, Catalog #G9243). The tissue culture plate was shaken on an orbital shaker at 300 RPM for 15 minutes at room temperature in the dark. Luminescence was measured using a PerkinElmer Envision™ plate reader. IC50 values were calculated using a four-parameter logistic curve fit using Genedata Screener software. Results are shown below in Table 5, where the average value across multiple runs is given.

Chain of RIPK1 (Q13546 1-327): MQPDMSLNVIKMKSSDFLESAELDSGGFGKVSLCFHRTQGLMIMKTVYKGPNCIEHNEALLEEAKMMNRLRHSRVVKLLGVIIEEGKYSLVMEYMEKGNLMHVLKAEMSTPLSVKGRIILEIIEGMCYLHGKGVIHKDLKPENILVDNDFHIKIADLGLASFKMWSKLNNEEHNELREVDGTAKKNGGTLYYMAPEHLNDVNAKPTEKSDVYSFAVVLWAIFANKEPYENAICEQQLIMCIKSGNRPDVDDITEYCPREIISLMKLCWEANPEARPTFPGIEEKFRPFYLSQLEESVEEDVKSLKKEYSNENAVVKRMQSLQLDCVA

IC50 [1]	Structure (SMILES)	IC50 [2]
27 nM	Cc1cc(=O)c(C(=O)NC2CCc3ccccc3NC2=O)nn1-c1cccc(F)c1 (centres unmarked) [Example 54, 1-(3-fluorophenyl)-6-methyl-4-oxo-N-(2-oxo-2,3,4,5-tetrahydro-1H-benzo[b]-azepin-3-yl)-1,4-dihydropyridazine-3-carboxamide]	53 nM
57.8 nM	Cc1cc(=O)c(C(=O)NC2CCc3ccccc3NC2=O)nn1-c1cccc(Cl)c1 (centres unmarked) [Example 68, 1-(3-chlorophenyl)-6-methyl-4-oxo-N-(2-oxo-2,3,4,5-tetrahydro-1H-benzo[b]-azepin-3-yl)-1,4-dihydropyridazine-3-carboxamide]	142 nM
23 nM	Cc1c(Br)c(=O)c(C(=O)NC2CCc3cc(Br)ccc3NC2=O)nn1-c1ccccc1 (centres unmarked) [Example 43, 5-Bromo-N-(7-bromo-2-oxo-2,3,4,5-tetrahydro-1H-benzo[b]azepin-3-yl)-6-methyl-4-oxo-1-phenyl-1,4-dihydropyridazine-3-carboxamide]	48 nM
62 nM	Cc1c(Br)c(=O)c(C(=O)NC2CCc3cc(C#N)ccc3NC2=O)nn1-c1ccccc1 (centres unmarked) [Example 44, 5-Bromo-N-(7-cyano-2-oxo-2,3,4,5-tetrahydro-1H-benzo[b]azepin-3-yl)-6-methyl-4-oxo-1-phenyl-1,4-dihydropyridazine-3-carboxamide]	160 nM
72 nM	Cc1c(C#N)c(=O)c(C(=O)NC2CCc3ccccc3N(C)C2=O)nn1-c1ccccc1 (centres unmarked) [Example 47, 5-Cyano-6-methyl-N-(1-methyl-2-oxo-2,3,4,5-tetrahydro-1H-benzo[b]azepin-3-yl)-4-oxo-1-phenyl-1,4-dihydropyridazine-3-carboxamide]	86 nM
28.9 nM	O=C(NC1CCc2ccccc2NC1=O)c1nn(-c2ccccc2)c2ccccc2c1=O (centres unmarked) [Example 70, 4-oxo-N-(2-oxo-2,3,4,5-tetrahydro-1H-benzo[b]azepin-3-yl)-1-phenyl-1,4-dihydrocinnoline-3-carboxamide]	227 nM
8500 nM	Cc1cc(=O)c(C(=O)NC2CCc3cc(F)cc(F)c3NC2)nn1-c1ccccc1 (centres unmarked) [Example 69, N-(7,9-difluoro-2,3,4,5-tetrahydro-1H-benzo[b]azepin-3-yl)-6-methyl-4-oxo-1-phenyl-1,4-dihydropyridazine-3-carboxamide]	10000 nM
48 nM	Cc1ccc(-n2nc(C(=O)N[C@H]3COc4cc(C#N)ccc4N(C)C3=O)c(=O)cc2C)cc1F [Example 62, (S)-N-(8-cyano-5-methyl-4-oxo-2,3,4,5-tetrahydrobenzo[b][1,4]oxazepin-3-yl)-1-(3-fluoro-4-methylphenyl)-6-methyl-4-oxo-1,4-dihydropyridazine-3-carboxamide]	67 nM

The next lines start with the compound.

Structure (SMILES)	IC50 [1]	IC50 [2]
Cc1c(Cl)c(=O)c(C(=O)NC2CCc3cc(Cl)ccc3NC2=O)nn1-c1ccccc1 (centres unmarked) [Example 40, 5-Chloro-N-(7-chloro-2-oxo-2,3,4,5-tetrahydro-1H-benzo[b]azepin-3-yl)-6-methyl-4-oxo-1-phenyl-1,4-dihydropyridazine-3-carboxamide]	36 nM	47 nM
Cc1c(Cl)c(=O)c(C(=O)NC2CCc3ccccc3NC2=O)nn1-c1ccccc1 (centres unmarked) [Example 39, 5-Chloro-6-methyl-4-oxo-N-(2-oxo-2,3,4,5-tetrahydro-1H-benzo[b]azepin-3-yl)-1-phenyl-1,4-dihydropyridazine-3-carboxamide]	18 nM	69 nM
Cc1cc(=O)c(C(=O)Nc2c(Br)cccc2C(C)C)nn1-c1ccccc1 [Example 24, N-(2-bromo-6-isopropylphenyl)-6-methyl-4-oxo-1-phenyl-1,4-dihydropyridazine-3-carboxamide]	489 nM	2660 nM
Cc1cc(=O)c(C(=O)Nc2cccc(Cl)c2F)nn1-c1ccccc1 [Example 1, N-(3-chloro-2-fluorophenyl)-6-methyl-4-oxo-1-phenyl-1,4-dihydropyridazine-3-carboxamide]	32 nM	136 nM
Cc1cc(=O)c(C(=O)Nc2cccc(Cl)c2F)nn1-c1cccc(Cl)c1 [Example 17, N-(3-chloro-2-fluorophenyl)-1-(3-chlorophenyl)-6-methyl-4-oxo-1,4-dihydropyridazine-3-carboxamide]	52 nM	631 nM
Cc1cc(=O)c(C(=O)Nc2cccc(Cl)c2F)nn1-c1cc(F)ccc1F [Example 9, N-(3-chloro-2-fluorophenyl)-1-(2,5-difluorophenyl)-6-methyl-4-oxo-1,4-dihydropyridazine-3-carboxamide]	78 nM	170 nM
Cc1cc(=O)c(C(=O)NC2CCc3ccccc3NC2=O)nn1-c1ccccc1 (centres unmarked) [Example 38, 6-Methyl-4-oxo-N-(2-oxo-2,3,4,5-tetrahydro-1H-benzo[b]azepin-3-yl)-1-phenyl-1,4-dihydropyridazine-3-carboxamide]	57 nM	82 nM
Cc1cccc(C2CC2)c1NC(=O)c1nn(-c2ccccc2)c(C)cc1=O [Example 26, N-(2-cyclopropyl-6-methylphenyl)-6-methyl-4-oxo-1-phenyl-1,4-dihydropyridazine-3-carboxamide]	668 nM	3170 nM
